Each structure is given as a SMILES string. Where a name gives a salt, the structure may show the parent alone.

What is called melting point is the temperature of the solid-liquid transition. Turning to `Cc1nc2ccccc2n1-c1ccc(C(=O)N(C)[C@@H]2CCN(CC3CCCCC3)C2)cc1` (as salt: hydrochloride), the melting point fell in the range of 184 to 185 °C.
In the case of `Cc1nc2ccccc2n1-c1ccc(C(=O)N(C)[C@@H]2CCN(C(C)C)C2)cc1` (as salt: hydrochloride) it was 181 to 183 °C; in that of `Cc1nc2ccccc2n1-c1ccc(C(=O)N(C)[C@@H]2CCN(C3CCC3)C2)cc1` (as salt: hydrochloride), 175 to 176 °C; in that of `Cc1nc2ccccc2n1-c1ccc(C(=O)N(C)[C@@H]2CCN(C3CCCC3)C2)cc1` (as salt: hydrochloride), 186 to 187 °C.
In the case of `Cc1nc2ccccc2n1-c1ccc(C(=O)N(C)[C@@H]2CCN(C3CCOCC3)C2)cc1` (as salt: hydrochloride) it was 200 to 202 °C; in that of `Cc1nc2ccccc2n1-c1ccc(C(=O)N(C)[C@@H]2CCN(C3CC4CCC3C4)C2)cc1` (stereo partly drawn) (as salt: hydrochloride), 205 to 207 °C; in that of `Cc1nc2ccccc2n1-c1ccc(C(=O)N(C)[C@@H]2CCN(C3C4CC5CC(C4)CC3C5)C2)cc1` (stereo partly drawn) (as salt: hydrochloride), 257 to 259 °C.
In the case of `Cc1nc2ccccc2n1-c1ccc(C(=O)N(C)[C@H]2CCN(C(C)C)C2)cc1` (as salt: hydrochloride) it was 190 to 192 °C; in that of `Cc1nc2ccccc2n1-c1ccc(C(=O)N(C)[C@H]2CCN(C3CCC3)C2)cc1` (as salt: hydrochloride), 184 to 185 °C; in that of `Cc1nc2ccccc2n1-c1ccc(C(=O)N(C)[C@H]2CCN(C3CCCC3)C2)cc1` (as salt: hydrochloride), 165 to 166 °C.
Consider `Cc1nc2ccccc2n1-c1ccc(C(=O)N(C)[C@H]2CCN(C3CCCCC3)C2)cc1` (as salt: hydrochloride), for which the melting point fell in the range of 170 to 172 °C.
As to `Cc1nc2ccccc2n1-c1ccc(C(=O)N(C)[C@H]2CCN(C3CCC(C)C3)C2)cc1` (stereo partly drawn) (as salt: hydrochloride), the melting point lay within 173 to 175 °C.
Under `Cc1nc2ccccc2n1-c1ccc(C(=O)N(C)[C@H]2CCN(C3CC[C@@H](C)C3)C2)cc1` (stereo partly drawn) (as salt: hydrochloride) stands 175 to 177 °C; under `Cc1nc2ccccc2n1-c1ccc(C(=O)N(C)[C@H]2CCN(C3CCCCC3C)C2)cc1` (stereo partly drawn) (as salt: hydrochloride), 195 to 196 °C.
In the case of `Cc1nc2ccccc2n1-c1ccc(C(=O)N(C)[C@H]2CCN(C3CCC[C@@H](C)C3)C2)cc1` (stereo partly drawn) (as salt: hydrochloride) it was 187 to 189 °C; in that of `Cc1nc2ccccc2n1-c1ccc(C(=O)N(C)[C@H]2CCN(C3CCCC(C)C3)C2)cc1` (stereo partly drawn) (as salt: hydrochloride), 181 to 183 °C.
In the case of `Cc1nc2ccccc2n1-c1ccc(C(=O)N(C)[C@H]2CCN(CC3CC3)C2)cc1` (as salt: hydrochloride) it was 179 to 180 °C; in that of `Cc1nc2ccccc2n1-c1ccc(C(=O)N(C)[C@@H]2CCN(CC(C)C)C2)cc1` (as salt: hydrochloride), 189 to 190 °C.
The compound `Cc1nc2ccccc2n1-c1ccc(C(=O)N(C)[C@@H]2CCN(C3CCCCC3)C2)cc1` (as salt: hydrochloride) displayed a melting point of 193 to 194 °C.
Under `Cc1nc2ccccc2n1-c1ccc(C(=O)N(C)[C@@H]2CCN(CC3CC3)C2)cc1` (as salt: hydrochloride) stands 185 to 186 °C.
In the case of `Cc1nc2ccccc2n1-c1ccc(C(=O)N(C)[C@@H]2CCN(CC3CCCC3)C2)cc1` (as salt: hydrochloride) it was 190 to 192 °C; in that of `Cc1nc2ccccc2n1-c1ccc(C(=O)N(C)C2CCNCC2)cc1` (as salt: hydrochloride) [Example 30, N-Methyl-4-(2-methylbenzimidazol-1-yl)-N-piperidin-4-yl-benzamide Hydrochloride], 219 to 221 °C.
As to `Cc1nc2ccccc2n1-c1ccc(C(=O)N(C)C2CCN(C(C)C)CC2)cc1` (as salt: hydrochloride) [Example 31, N-(1-isopropylpiperidin-4-yl)-N-methyl-4-(2-methyl-1H-benzimidazol-1-yl)benzamide], the melting point lay within 282 to 284 °C.
In the case of `Cc1nc2ccccc2n1-c1ccc(C(=O)N(C)C2CCN(C3CCCC3)CC2)cc1` (as salt: hydrochloride) [Example 32, N-(1-cyclopentylpiperidin-4-yl)-N-methyl-4-(2-methyl-1H-benzimidazol-1-yl)benzamide] it was 270 °C (dec.); in that of `Cc1nc2ccccc2n1-c1ccc(C(=O)N(C)C2CCN(C3CCCCC3)CC2)cc1` (as salt: hydrochloride) [Example 33, N-(1-cyclohexylpiperidin-4-yl)-N-methyl-4-(2-methyl-1H-benzimidazol-1-yl)benzamide], 285 °C (dec.).
Regarding `Cc1nc2ccccc2n1-c1ccc(C(=O)N(C)C2CCN(C3CCC3)CC2)cc1` (as salt: hydrochloride) [Example 34, N-(1-cyclobutylpiperidin-4-yl)-N-methyl-4-(2-methyl-1H-benzimidazol-1-yl)benzamide], the melting point is 280 °C (dec.).
In the case of `Cc1nc2ccccc2n1Cc1ccc(C(=O)N(C)[C@@H]2CCNC2)cc1` (as salt: hydrochloride) [Example 35, N-Methyl-4-[(2-methylbenzimidazol-1-yl)methyl]-N—(R)-pyrrolidin-3-yl-benzamide Hydrochloride] it was 126 to 128 °C; in that of `CN(C(=O)c1ccc(Cn2cnc3ccccc32)cc1)[C@@H]1CCNC1` (as salt: hydrochloride) [Example 36, (R)-4-((1H-benzo[d]imidazol-1-yl)methyl)-N-methyl-N-(pyrrolidin-3-yl)benzamide Hydrochloride], 150 to 152 °C; in that of `Cc1nc2ccccc2n1Cc1ccc(C(=O)N(C)[C@@H]2CCN(C3CCCCC3)C2)cc1` (as salt: hydrochloride) [Example 40, N-[(3R)-1-cyclohexylpyrrolidin-3-yl]-N-methyl-4-[(2-methyl-1H-benzimidazol-1-yl)methyl]benzamide], 188 to 190 °C.
As to `Cc1nc2ccccc2n1Cc1ccc(C(=O)N(C)C2CCN(C(C)C)CC2)cc1` (as salt: hydrochloride) [Example 46, N-(1-isopropylpiperidin-4-yl)-N-methyl-4-[(2-methyl-1H-benzimidazol-1-yl)methyl]benzamide], the melting point is 200 to 202 °C.
In the case of `Cc1nc2ccccc2n1Cc1ccc(C(=O)N(C)C2CCN(C3CCC3)CC2)cc1` (as salt: hydrochloride) [Example 47, N-(1-cyclobutylpiperidin-4-yl)-N-methyl-4-[(2-methyl-1H-benzimidazol-1-yl)methyl]benzamide], the melting point was 280 °C (dec.).
In the case of `Cc1nc2ccccc2n1Cc1ccc(C(=O)N(C)C2CCN(C3CCCC3)CC2)cc1` (as salt: hydrochloride) [Example 48, N-(1-cyclopentylpiperidin-4-yl)-N-methyl-4-[(2-methyl-1H-benzimidazol-1-yl)methyl]benzamide] it was 280 °C (dec.); in that of `CC(C)N1CCC(N(C)C(=O)c2ccc(Cn3cnc4ccccc43)cc2)CC1` (as salt: hydrochloride) [Example 49, 4-(1H-benzimidazol-1-ylmethyl)-N-(1-isopropylpiperidin-4-yl)-N-methylbenzamide], 185 to 187 °C; in that of `CN(C(=O)c1ccc(Cn2cnc3ccccc32)cc1)C1CCN(C2CCC2)CC1` (as salt: hydrochloride) [Example 50, 4-(1H-benzimidazol-1-ylmethyl)-N-(1-cyclobutylpiperidin-4-yl)-N-methylbenzamide], 238 to 240 °C.
In the case of `CN(C(=O)c1ccc(Cn2cnc3ccccc32)cc1)C1CCN(C2CCCC2)CC1` (as salt: hydrochloride) [Example 51, 4-(1H-benzimidazol-1-ylmethyl)-N-(1-cyclopentylpiperidin-4-yl)-N-methylbenzamide] it was 248 to 250 °C.
Compound `Cc1nc2cc(C#N)ccc2n1-c1ccc(C(=O)N(C)[C@@H]2CCN(C(C)C)C2)cc1` (as salt: hydrochloride) [Example 54, 4-(5-cyano-2-methyl-1H-benzimidazol-1-yl)-N-[(3R)-1-isopropylpyrrolidin-3-yl]-N-methylbenzamide] came in with a melting point of 230 to 232 °C.
In the case of `Cc1nc2cc(C#N)ccc2n1-c1ccc(C(=O)N(C)[C@@H]2CCN(C3CCC3)C2)cc1` (as salt: hydrochloride) [Example 55, 4-(5-cyano-2-methyl-1H-benzimidazol-1-yl)-N-[(3R)-1-cyclobutylpyrrolidin-3-yl]-N-methylbenzamide] it was 240 to 242 °C; in that of `Cc1nc2cc(C#N)ccc2n1-c1ccc(C(=O)N(C)[C@@H]2CCN(C3CCCC3)C2)cc1` (as salt: hydrochloride) [Example 56, 4-(5-cyano-2-methyl-1H-benzimidazol-1-yl)-N-[(3R)-1-cyclopentylpyrrolidin-3-yl]-N-methylbenzamide], 185 to 187 °C.
Under `CC(C)N1CC[C@@H](N(C)C(=O)c2ccc(-n3cc4ccccc4n3)cc2)C1` (as salt: hydrochloride) [Example 61, 4-(2H-indazol-2-yl)-N-[(3R)-1-isopropylpyrrolidin-3-yl]-N-methylbenzamide] stands 227 to 228 °C.
With `CN(C(=O)c1ccc(-n2cc3ccccc3n2)cc1)[C@@H]1CCN(C2CCC2)C1` (as salt: hydrochloride) [Example 62, N-[(3R)-1-cyclobutylpyrrolidin-3-yl]-4-(2H-indazol-2-yl)-N-methylbenzamide], the melting point was 163 to 165 °C.
In the case of `CN(C(=O)c1ccc(-n2cc3ccccc3n2)cc1)[C@@H]1CCN(C2CCCC2)C1` (as salt: hydrochloride) [Example 63, N-[(3R)-1-cyclopentylpyrrolidin-3-yl]-4-(2H-indazol-2-yl)-N-methylbenzamide] it was 216 to 218 °C; in that of `CC(C)N1CC[C@@H](N(C)C(=O)c2ccc(-n3ncc4ccccc43)cc2)C1` (as salt: hydrochloride) [Example 64, 4-(1H-indazol-1-yl)-N-[(3R)-1-isopropylpyrrolidin-3-yl]-N-methylbenzamide], 175 to 177 °C.

These data come from US20080293771A1, “AZACYCLYLBENZAMIDE DERIVATIVES AS HISTAMINE-3 ANTAGONISTS” (Wyeth, priority 2007, published 2008).
